According to patent publication US20050014685A1, “New compound” (FUJISAWA PHARMACEUTICAL CO., LTD., priority 2003, published 2005):
*1 amine or outer side, *2 acyl side, *3 side chain or, on linkers, in order; H or OH if unused. Where a SMILES comes first, the peptide text is derived from it. Bridges are numbered along the chain shown (N, C = ends). [ ]: non-standard residue; d: D form. The star is where a group is joined. X2 = C[C@H]1CC[C@@H](N2CCN(c3ccc(-c4nnc(-c5ccc(C(=O)*)cc5)s4)cc3)CC2)CC1; X1 = O=C(c1ccc(-c2nnc(-c3ccc(N4CCN(C5CCCCC5)CC4)cc3)s2)cc1)*; Orn(3R-OH,Nδ-CH(CH2OH)2) = N[C@H](C(=O)O)[C@H](O)CCNC(CO)CO; hTyr(βR-OH,3-OMe) = COc1cc(C[C@@H](O)[C@H](N)C(=O)O)ccc1O; Orn(4R-OH) = O=C([C@H](C[C@@H](O)CN[*:3])N[*:1])[*:2]; Pro(3S-OH,4S-Me) = C[C@H]1CN[C@H](C(=O)O)[C@H]1O; Orn(3R-OH) = NCC[C@@H](O)[C@H](N)C(=O)O; Hyp = O=C(O)[C@@H]1C[C@@H](O)CN1

test system: Candida albicans FP-633; format: cell-based; conditions: FP-633, pH 7.3
Procedure: In vitro antimicrobial activity of the object compound of Examples 1, 7, 12 and 19 disclosed later was determined by MICs in mouse serum as described below.
The MIC5 in mouse serum were determined by the microdilution method using ICR mouse serum buffered with 20 mM HEPES buffer (pH 7.3) as a test medium. Inoculum suspension of 10^6 cells/ml were prepared by a hemocytometric procedure and diluted to obtain an inoculum size of approximately 1.0×10^3 cells/ml. Microplates were incubated at 37° C. for […] in 5% CO2. The MICs was defined as the lowest concentrations at which no visible growth was observed.

MIC [µg/mL] | SMILES
<0.2 | COc1cc(C[C@@H](O)[C@@H]2NC(=O)[C@@H]3C[C@@H](O)CN3C(=O)[C@H]([C@@H](C)O)NC(=O)[C@@H](NC(=O)c3ccc(-c4nnc(-c5ccc(N6CCN([C@H]7CC[C@@H](C)CC7)CC6)cc5)s4)cc3)C[C@@H](O)CNC(=O)[C@@H]3[C@@H](O)[C@@H](C)CN3C(=O)[C@H]([C@H](O)CCN)NC2=O)ccc1O [Example 1] (X2-[Orn(4R-OH)]T[Hyp][hTyr(βR-OH,3-OMe)][Orn(3R-OH)][Pro(3S-OH,4S-Me)]; lactam 1-C)
<0.2 | COc1cc(C[C@@H](O)[C@@H]2NC(=O)[C@@H]3C[C@@H](O)CN3C(=O)[C@H]([C@@H](C)O)NC(=O)[C@@H](NC(=O)c3ccc(-c4nnc(-c5ccc(N6CCN([C@H]7CC[C@@H](C)CC7)CC6)cc5)s4)cc3)C[C@@H](O)CNC(=O)[C@@H]3[C@@H](O)[C@@H](C)CN3C(=O)[C@H]([C@H](O)CCNC(CO)CO)NC2=O)ccc1O [Example 19] (X2-[Orn(4R-OH)]T[Hyp][hTyr(βR-OH,3-OMe)][Orn(3R-OH,Nδ-CH(CH2OH)2)][Pro(3S-OH,4S-Me)]; lactam 1-C)
<0.2 | COc1cc(C[C@@H](O)[C@@H]2NC(=O)[C@@H]3C[C@@H](O)CN3C(=O)[C@H]([C@@H](C)O)NC(=O)[C@@H](NC(=O)c3ccc(-c4nnc(-c5ccc(N6CCN(C7CCCCC7)CC6)cc5)s4)cc3)C[C@@H](O)CNC(=O)[C@@H]3[C@@H](O)[C@@H](C)CN3C(=O)[C@H]([C@H](O)CCN)NC2=O)ccc1O [Example 7] (X1-[Orn(4R-OH)]T[Hyp][hTyr(βR-OH,3-OMe)][Orn(3R-OH)][Pro(3S-OH,4S-Me)]; lactam 1-C)
